# Measurements published in patent publication US12714706B2, “Methods of treating small cell lung cancer with lurbinectedin formulations” (PHARMA MAR, S.A., priority 2019, dated 2026).
# Where two headings read alike, the source gives them in different places.
# What was measured:
# [1] = Phase 2 trial of lurbinectedin monotherapy: plasma pharmacokinetics; type: in vivo; conditions: human, intravenous, 3.2 mg/m^2 as 1-hour infusion
# Procedure: The plasma PK of lurbinectedin was evaluated during Cycles 1 and 2 in all treated patients. The sampling schedule is shown in Table 15 and Table 16, respectively.
# PK analysis of plasma-concentration-time data of lurbinectedin was performed using non-linear mixed-effects modeling and/or non-compartment analysis.
# SCLC = assay: Phase 2 trial of lurbinectedin monotherapy in SCLC: antitumor activity (ORR, DOR, PFS, OS; RECIST v1.1); type: in vivo, human
# advanced solid tumors = assay: Lurbinectedin plus irinotecan trial: efficacy per tumor type (RECIST v1.1, PFS, OS); type: in vivo, human; conditions: all doses
# Text: Secondary outcome measures included safety evaluation, peak plasma concentration (Cmax), area-under-the plasma concentration versus time curve (AUC), volume of distribution based on the terminal half-life (Vz), volume of distribution at steady state (Vss), clearance (CL), half-life (t½), evaluation of antitumor response (RECIST v1.1, start of treatment until PD, other antitumor therapy, death or until 12 months after the inclusion of the last evaluable patient in the study (end of study), whichever occurs first), progression-free survival (from the date of first infusion of study treatment to the date of progression or death or until 12 months after end of study, whichever occurs first), and overall survival (from the date of first infusion to study treatment to the date or death or until 12 months after end of study, whichever occurs first).
# Encouraging activity has been observed in patients with SOLO, including some cases as third line treatment. Signals of activity were also observed in endometrial carcinoma and soft tissue sarcoma (STS) and glioblastoma (GBM). Consequently, a Phase II expansion at the RD to further explore efficacy and safety in SOLO, GBM, STS, and endometrial carcinoma. A total of […] patients were treated at the RD, including n=15 SOLO, n=11 endometrial cancer, n=10 STS, and n=20 GBM patients.
# physchem = conditions: pH 4, aqueous buffer
# Procedure: Bulk solutions of phosphate, acetate, citrate, lactate and succinate buffers were prepared to determine maximum solubility of lurbinectedin.
# SCLC patients = assay: Phase 2 trial of lurbinectedin monotherapy in SCLC: safety evaluation (NCI-CTCAE v4); type: in vivo, human
# Procedure: Patients were evaluated for safety if they had received any partial or complete infusion of lurbinectedin. All adverse events were graded according to the National Cancer Institute-Common Toxicity Criteria for Adverse Events (NCI-CTCAE, v4). The safety profile of patients was monitored throughout the treatment and up to 30 days after the last lurbinectedin infusion (end of treatment), or until the patient started a new anti-tumor therapy or until the date of death, whichever occurred first. Treatment delays, dose reduction requirements, transfusions, and reason for treatment discontinuation was monitored throughout the study. Any treatment-related adverse events were followed until recovery to at least grade 1 or stabilization of symptoms or until the start of a new anti-tumor therapy, whichever occurred first.
# [2] = lurbinectedin single agent 3.2 mg/m2 (ref); n=329; mean (SD); cited from earlier work
# [3] = chemotherapy-free interval 90 days or longer (sensitive)
# [4] = 105 SCLC patients, 3.2 mg/m^2 q3wk
# [5] = biochemical abnormality regardless of relation to study drug, patients with laboratory data, NCI-CTCAE v4.0, SCLC
# [6] = haematological abnormality regardless of relation to study drug, NCI-CTCAE v4.0, 105 treated SCLC patients
# [7] = treatment-related adverse event, NCI-CTCAE v4.0, 105 treated SCLC patients
structure (smiles),measurement,setting,value
"COc1ccc2[nH]c3c(c2c1)CCN[C@]31CS[C@@H]2c3c(OC(C)=O)c(C)c4c(c3[C@H](COC1=O)N1[C@@H]2[C@H]2c3c(cc(C)c(OC)c3O)C[C@@H]([C@@H]1O)N2C)OCO4 [lurbinectedin, Lurbinectedin]",AUC(0-inf),[1],~551 ng·h/mL
same,Cmax,[1]; read-out: Mean total plasma Cmax,~107 ng/mL
same,Overall response rate (CR + PR),"SCLC; IRC assessment, overall (n = 105)",30.5%
same,"Duration of response, median","SCLC; IRC assessment, resistant disease (CTFI <90 days)",4.8 months
same,Overall response rate (CR + PR),"SCLC; IRC assessment, resistant disease (CTFI <90 days, n = 45)",13.3%
same,"Duration of response, median","SCLC; IRC assessment, sensitive disease (CTFI ≥90 days)",5.3 months
same,Overall response rate (CR + PR),"SCLC; IRC assessment, sensitive disease (CTFI ≥90 days, n = 60)",43.3%
same,"Duration of response, median","SCLC; Investigator assessment, overall",5.3 months
same,"Duration of response, median","SCLC; Investigator assessment, resistant disease (CTFI <90 days)",4.7 months
same,"Duration of response, median","SCLC; Investigator assessment, sensitive disease (CTFI ≥90 days)",6.2 months
same,Overall response rate (CR + PR),"SCLC; Investigator assessment, sensitive disease (CTFI ≥90 days, n = 60)",45.0%
same,Median progression-free survival,"SCLC; Investigator-assessed, overall population",3.5 months
same,Patients alive at 1 year after the first dose,SCLC; chemotherapy-free interval 90 days or longer (n = 60),48%
same,Median overall survival,SCLC; [3],11.9 months
same,Median progression-free survival,SCLC; [3],4.6 months
same,Median overall survival,SCLC; overall population,9.3 months
same,Median overall survival of patients with initial objective response (post-hoc),SCLC; responders with sensitive disease,15.8 months
same,CBR (ORR + SD >4 mo),advanced solid tumors; Endometrial (n = 10 evaluable),60%
same,DCR (ORR + SD),advanced solid tumors; Endometrial (n = 10 evaluable),100%
same,Median DoR,advanced solid tumors; Endometrial (n = 10 evaluable),4.6 mo
same,Median PFS,advanced solid tumors; Endometrial (n = 10 evaluable),7.1 mo
same,ORR* (PR),advanced solid tumors; Endometrial (n = 10 evaluable),3 (30) n(%)
same,PFS rate at 6 mo,advanced solid tumors; Endometrial (n = 10 evaluable),50%
same,CBR (ORR + SD >4 mo),advanced solid tumors; GBM (n = 16 evaluable),18.8%
same,DCR (ORR + SD),advanced solid tumors; GBM (n = 16 evaluable),43.8%
same,Median PFS,advanced solid tumors; GBM (n = 16 evaluable),1.4 mo
same,ORR* (PR),advanced solid tumors; GBM (n = 16 evaluable),1 (6.3) n(%)
same,PFS rate at 6 mo,advanced solid tumors; GBM (n = 16 evaluable),7.1%
same,CBR (ORR + SD >4 mo),advanced solid tumors; SCLC (n = 13 evaluable),76.9%
same,DCR (ORR + SD),advanced solid tumors; SCLC (n = 13 evaluable),84.6%
same,Median DoR,advanced solid tumors; SCLC (n = 13 evaluable),4.6 mo
same,Median PFS,advanced solid tumors; SCLC (n = 13 evaluable),4.3 mo
same,ORR* (PR),advanced solid tumors; SCLC (n = 13 evaluable),9 (69.2) n(%)
same,PFS rate at 6 mo,advanced solid tumors; SCLC (n = 13 evaluable),36.3%
same,CBR (ORR + SD >4 mo),advanced solid tumors; STS (n = 10 evaluable),40%
same,DCR (ORR + SD),advanced solid tumors; STS (n = 10 evaluable),80%
same,Median PFS,advanced solid tumors; STS (n = 10 evaluable),2.6 mo
same,ORR* (PR),advanced solid tumors; STS (n = 10 evaluable),0 n(%)
same,PFS rate at 6 mo,advanced solid tumors; STS (n = 10 evaluable),33.8%
same,solubility,physchem; monopotassium phosphate buffer,210 µg/mL
same,solubility,physchem; sodium acetate buffer,940 µg/mL
same,solubility,physchem; sodium citrate buffer,930 µg/mL
same,solubility,physchem; sodium lactate buffer,900 µg/mL
same,solubility,physchem; sodium succinate buffer,970 µg/mL
same,Patients with dose delays caused by neutropenia,SCLC patients; 105 SCLC patients,12%
same,Patients with dose reductions caused by neutropenia,SCLC patients; 105 SCLC patients,16%
same,Patients with dose administration delayed because of treatment-related adverse events,SCLC patients; [4],22%
same,Patients with dose reduced because of treatment-related adverse events,SCLC patients; [4],26%
same,Discontinuation because of treatment-related adverse events,SCLC patients; 105 treated patients,2%
same,Drug-induced liver injury,SCLC patients; 105 treated patients,no cases
same,Grade 3-4 anemia,SCLC patients; 105 treated patients,9%
same,Grade 3-4 febrile neutropenia,SCLC patients; 105 treated patients,5%
same,Grade 3-4 leukopenia,SCLC patients; 105 treated patients,29%
same,Grade 3-4 neutropenia,SCLC patients; 105 treated patients,46%
same,Grade 3-4 thrombocytopenia,SCLC patients; 105 treated patients,7%
same,Grade 3 pneumonia,SCLC patients; 105 treated patients,2%
same,Patients who received G-CSF secondary prophylaxis or therapy for neutropenia,SCLC patients; 105 treated patients,22%
same,Serious treatment-related adverse events,SCLC patients; 105 treated patients,10%
same,Serious treatment-related febrile neutropenia,SCLC patients; 105 treated patients,5%
same,Serious treatment-related neutropenia,SCLC patients; 105 treated patients,5%
same,Treatment-related deaths,SCLC patients; 105 treated patients,No treatment-related deaths
same,"Alanine aminotransferase, Grade 4",SCLC patients; [5],0 n (%) of patients
same,"Alkaline phosphatase, Grade 4",SCLC patients; [5],0 n (%) of patients
same,"Aspartate aminotransferase, Grade 4",SCLC patients; [5],0 n (%) of patients
same,"Creatinine, Grade 3",SCLC patients; [5],0 n (%) of patients
same,"Creatinine, Grade 4",SCLC patients; [5],0 n (%) of patients
same,"Anaemia, Grade 1-2",SCLC patients; [6],91 (87%) n (%) of patients
same,"Anaemia, Grade 3",SCLC patients; [6],9 (9%) n (%) of patients
same,"Anaemia, Grade 4",SCLC patients; [6],0 n (%) of patients
same,"Leucopenia, Grade 1-2",SCLC patients; [6],53 (50%) n (%) of patients
same,"Leucopenia, Grade 3",SCLC patients; [6],20 (19%) n (%) of patients
same,"Leucopenia, Grade 4",SCLC patients; [6],10 (10%) n (%) of patients
same,"Neutropenia, Grade 1-2",SCLC patients; [6],27 (26%) n (%) of patients
same,"Neutropenia, Grade 3",SCLC patients; [6],22 (21%) n (%) of patients
same,"Neutropenia, Grade 4",SCLC patients; [6],26 (25%) n (%) of patients
same,"Thrombocytopenia, Grade 1-2",SCLC patients; [6],39 (37%) n (%) of patients
same,"Thrombocytopenia, Grade 3",SCLC patients; [6],3 (3%) n (%) of patients
same,"Thrombocytopenia, Grade 4",SCLC patients; [6],4 (4%) n (%) of patients
same,"Decreased appetite, Grade 1-2",SCLC patients; [7],22 (21%) n (%) of patients
same,"Decreased appetite, Grade 3",SCLC patients; [7],0 n (%) of patients
same,"Decreased appetite, Grade 4",SCLC patients; [7],0 n (%) of patients
same,"Diarrhoea, Grade 1-2",SCLC patients; [7],13 (14%) n (%) of patients
same,"Diarrhoea, Grade 3",SCLC patients; [7],1 (1%) n (%) of patients
same,"Diarrhoea, Grade 4",SCLC patients; [7],0 n (%) of patients
same,"Fatigue, Grade 1-2",SCLC patients; [7],54 (51%) n (%) of patients
same,"Fatigue, Grade 3",SCLC patients; [7],7 (7%) n (%) of patients
same,"Fatigue, Grade 4",SCLC patients; [7],0 n (%) of patients
same,"Febrile neutropenia, Grade 1-2",SCLC patients; [7],0 n (%) of patients
same,"Febrile neutropenia, Grade 3",SCLC patients; [7],2 (2%) n (%) of patients
same,"Febrile neutropenia, Grade 4",SCLC patients; [7],3 (3%) n (%) of patients
same,"Nausea, Grade 1-2",SCLC patients; [7],34 (32%) n (%) of patients
same,"Nausea, Grade 3",SCLC patients; [7],0 n (%) of patients
same,"Nausea, Grade 4",SCLC patients; [7],0 n (%) of patients
same,"Pneumonia, Grade 1-2",SCLC patients; [7],0 n (%) of patients
same,"Pneumonia, Grade 3",SCLC patients; [7],2 (2%) n (%) of patients
same,"Pneumonia, Grade 4",SCLC patients; [7],0 n (%) of patients
same,"Skin ulcer, Grade 1-2",SCLC patients; [7],0 n (%) of patients
same,"Skin ulcer, Grade 3",SCLC patients; [7],1 (1%) n (%) of patients
same,"Skin ulcer, Grade 4",SCLC patients; [7],0 n (%) of patients
same,"Vomiting, Grade 1-2",SCLC patients; [7],19 (18%) n (%) of patients
same,"Vomiting, Grade 3",SCLC patients; [7],0 n (%) of patients
same,"Vomiting, Grade 4",SCLC patients; [7],0 n (%) of patients
same,CL,[2],12.4 (7.6) L/h
same,Cmax,[2],127.5 (100.2) ug/L
same,HL,[2],42.6 (38.4) h
same,Vz,[2],664.7 (460.3) L
